Columns and labels:
IDO1 = IDO1 (Homo sapiens, UniProt P14902); assay: IDO1 activity assay, N-formylkynurenine absorbance at 321 nm; format: biochemical
Procedure: FIG. 6 reflects a system involving IDO1 (50 nM), 0.1 mM L-tryptophan, and 5 mM glutathione in 100 mM sodium phosphate, pH 7.0 with <1 μM 6-chloro-5-fluoro-1H-indole-3-thiol.
The activity of the compounds was determined as follows. UV—vis spectra were recorded using a Hewlett-Packer 8453 diode array spectrophotometer. Activity assays were done at room temperature using 100 mM sodium phosphate, pH 7.0, with 500 nM IDO1 (ε404 nm=172 mM^−1 cm^−1) and 50 μM L-tryptophan. These were initiated by addition of IDO1, and activity was monitored at 321 nm where product N-formylkynurenine absorbs (ε321 nm=3750 M^−1 cm^−1).
The substituted indole compound was prepared daily in a 100 mM stock solution in dimethyl sulfoxide (DMSO), and this was serially diluted to maintain a consistent final concentration of 1% (v/v) DMSO in each assay. To maintain activity, 5 mM reduced glutathione was added to some of these from a 0.5 M stock solution. The substituted indole compound was generally tested from 100 nM to 10 μM. The ability of each compound to serve as a reducing substrate for IDO1 was fit using a Michaelis—Menten equation. […] Above 5 μM 3MI, there was a steep inhibitory effect.

ferric IDO1 = ferric IDO1 (Homo sapiens, UniProt P14902); assay: Stopped-flow UV-vis spectrometry of binding to ferric IDO1
Procedure: FIG. 3 is a graph showing the second-order rate constant of 3MI binding to ferric IDO1 determined by stopped-flow spectrometry.
FIG. 4 is a graph showing stopped-flow UV—vis spectrometry of 3MI (30 μM) binding to IDO1 (1.4 μM) over 0.2 s.
3-Mercaptoindole (3MI) was seen to bind to IDO1 with a fast on-rate of 1.7×10^6 M^−1 s^−1 under pseudo-first-order conditions (See FIG. 3), producing a UV—vis spectrum (see FIG. 4) that has a Soret at 424 nm, a lower peak at 321 nm, and broad q-bands at 537 nm and a shoulder at about 575 nm. […] Note that although 3MI is referred to here, similar results can be seen with other substituted indole compounds disclosed herein.
Using 3MI, there was an initial burst of IDO1 activity, which leveled off after 500 s, well before substrate tryptophan was consumed (FIG. 2, 202). Reduced glutathione was added to the activity assay solutions at nearly cellular concentrations (5 mM) to reduce any oxidized 3MI-disulfide products that may have formed, and this allowed for sustained 3MI-induced IDO1 activity (FIG. 2, 201).

ferric-superoxo IDO1 = ferric-superoxo IDO1 (Homo sapiens, UniProt P14902); assay: Double-mixing stopped-flow spectrometry with ferric-superoxo IDO1; format: biochemical; details: lowest 3MI concentration useful for pseudo-first-order conditions; nearly within instrument mixing time
Procedure: The nature of substituted indole compound-inhibition at high concentrations (>5 μM) was examined further with ferric-superoxo IDO1, the active tryptophan-oxidizing species. Ferric-superoxo IDO1 was generated using double-mixing stopped-flow spectrometry by mixing IDO1 prereduced with 2 mM sodium dithionite into aerobic buffer for 0.5 s. This ferric superoxo species was then mixed in the second push with 3MI that had been maintained in the reduced state using 5 mM glutathione. 3MI readily reacted with ferric-superoxo IDO1 to form ferric IDO1 without any observable intermediates. This was shown by a fast shift from the ferric-superoxo complex (λmax 415 nm) to the ferric (λmax 404 nm) that was completed nearly within the mixing time of the instrument (<10 ms) even at the lowest concentration of 3MI useful for pseudo-first-order reaction conditions (where 3MI must be at a large excess over IDO1). Following this fast conversion to ferric IDO1, there was a slower shift to the ferric 3MI-bound complex as indicated by the Soret shifting to 424 nm (as in FIG. 4). To account for both reactions, these traces were fit using a double exponential expression.

myoglobin = assay: Heme protein selectivity, stopped-flow UV-vis: myoglobin; format: biochemical; details: pseudo-first-order conditions
Procedure: (§1) Since hydrogen sulfide and polysulfides are known to react with other heme proteins, the selectivity of 3MI for IDO1 was examined by mixing the substituted indole compounds (such as 3MI) with several other heme proteins and observing their reactions using stopped-flow UV—vis spectrometry.
(§2) The substituted indole compounds had no effect on catalase even at 250 μM, whereas the substituted indole compounds did appear to reduce myoglobin and hemoglobin, producing their oxygen-bound forms. The substituted indole compound were also able to reduce ferric cytochrome c to its distinctive ferrous form. The second-order rate constants of these reactions were determined under pseudo-first-order conditions giving 6.6×10^3, 1.6×10^4, and 2.7×10^5 M^−1 s^−1 for myoglobin, hemoglobin, and cytochrome c, respectively. […] Unlike myoglobin and hemoglobin, the oxy-form of IDO1 was not observed due to the relatively slow reduction of IDO1 by 3MI.

hemoglobin = assay: Heme protein selectivity, stopped-flow UV-vis: hemoglobin; format: biochemical; details: pseudo-first-order conditions
Procedure: as §1, §2

ferric cytochrome c = assay: Heme protein selectivity, stopped-flow UV-vis: cytochrome c; format: biochemical; details: pseudo-first-order conditions
Procedure: as §1, §2

IDO1, sequence (P14902 whole entry): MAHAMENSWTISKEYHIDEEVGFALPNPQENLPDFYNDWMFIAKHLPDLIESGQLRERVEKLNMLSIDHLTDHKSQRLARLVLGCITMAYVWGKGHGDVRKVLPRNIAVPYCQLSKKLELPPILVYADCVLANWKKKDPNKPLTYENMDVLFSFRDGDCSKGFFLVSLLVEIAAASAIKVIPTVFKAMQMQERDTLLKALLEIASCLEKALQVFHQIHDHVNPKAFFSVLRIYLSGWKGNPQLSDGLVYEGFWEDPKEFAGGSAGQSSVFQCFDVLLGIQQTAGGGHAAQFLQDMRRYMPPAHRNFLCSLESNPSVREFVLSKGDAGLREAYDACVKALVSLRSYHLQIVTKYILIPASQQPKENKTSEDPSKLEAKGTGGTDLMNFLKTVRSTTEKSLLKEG
ferric IDO1, sequence (P14902 whole entry): as above
ferric-superoxo IDO1, sequence (P14902 whole entry): as above

Structure (SMILES) | concentration above which there was a steep inhibitory effect on IDO1 activity (IDO1) | 3MI-induced IDO1 activity with glutathione (IDO1; 5 mM reduced glutathione added (FIG. 2, 201)) | time after which the initial burst of IDO1 activity leveled off (IDO1; 3MI without glutathione (FIG. 2, 202), before tryptophan was consumed) | activation of IDO1 (IDO1; FIG. 2) | Ki (IDO1; single exponential fit of the inhibitory region at higher concentrations, read-out: Ki app (apparent Ki at half-activity)) | selectivity: IDO1 binding rate constant exceeding that of the cytochrome c reduction (ferric IDO1; IDO1 versus cytochrome c) | kon (ferric IDO1; pseudo-first-order conditions, stopped-flow, ferric IDO1, read-out: on-rate / second-order rate constant of binding to IDO1) | time to complete the shift from ferric-superoxo complex to ferric IDO1 (ferric-superoxo IDO1) | second-order rate constant of reaction (reduction) with myoglobin (myoglobin) | second-order rate constant of reaction (reduction) with hemoglobin (hemoglobin) | second-order rate constant of reaction (reduction) with cytochrome c (ferric cytochrome c) | IDO1 activity, product N-formylkynurenine absorbance at 321 nm over time (FIG. 6) (IDO1; IDO1 50 nM, 0.1 mM L-tryptophan, 5 mM glutathione, 100 mM sodium phosphate pH 7.0, <1 μM compound, background subtracted)
Sc1c[nH]c2ccccc12 [3MI, 3-Mercaptoindole] | Above 5 μM | sustained | 500 s | inducing turnover even at nM concentrations | 8 ± 3 µM | an order of magnitude | 1.7e+06 M⁻¹ s⁻¹ | < 10 ms | 6600 M⁻¹ s⁻¹ | 16000 M⁻¹ s⁻¹ | 270000 M⁻¹ s⁻¹ | –
Fc1cc2c(S)c[nH]c2cc1Cl [6-chloro-5-fluoro-1H-indole-3-thiol] | – | – | – | – | – | – | – | – | – | – | – | increase in absorbance
